Experimental data published in publication PMC11220827 (Frontiers in Pharmacology, 2024).
Read-outs that look alike come from different tables or passages of the source.

Key:
[1] = system: HepG2 cells; experiment: cells; type: cell-based
[2] = biological target: Transthyretin (TTR) (Homo sapiens, UniProt P02766); details: reference
Description: DMSO (1% compound stock in incubation mixture). The incubation mixture was transferred to 96 -
was measured on a Berthold luminometer.
Serial dilutions of the compounds were incubated in Tris -buffer (pH 8.0) overnight at 4°C in the
incubation mixture). After incubation, TTR-bound and free T4 were separated on a Bio-Gel P-6DG
column. The eluate was added to assay medium after which TRβ CALUX cells were exposed for 24 h
(see CALUX bioassays). For this TRβ CALUX exposure, serum-free assay medium was used.

[3] = HepG2, 24 h, NR = No response observed

CC[C@@]1(O)C(=O)OCc2c1cc1n(c2=O)Cc2cc3ccccc3nc2-1 [(S)-(+)-camptothecin, reference compound]
DNA damage: Phospho-p53: MEC ([1]; HepG2, 24 h): 0.412 µM | DNA damage: p-H2AX: MEC ([1]; HepG2, 24 h): 1.06 µM | DNA damage: Phospho-p53: Effect [1, 3]: increase | DNA damage: p-H2AX: Effect [1, 3]: increase | AC50 ([1]; HepG2, 24 h, read-out: DNA damage: Phospho-p53: AC50): 1.25 µM | AC50 ([1]; HepG2, 24 h, read-out: DNA damage: p-H2AX: AC50): 9.1 µM

CCCCCC[C@H]1C(=O)O[C@H](C)[C@H](NC(=O)c2cccc(NC=O)c2O)C(=O)O[C@@H](C)[C@@H]1OC(=O)CC(C)C [Antimycin A, reference compound]
Mitochondrial mass: Effect [1, 3]: increase | AC50 ([1]; Homo sapiens, HepG2, 24 h, read-out: Mitochondrial mass: AC50): 0.245 µM

c1ccc2c(c1)cc1ccc3cccc4ccc2c1c34 [Benzo(a)pyrene, reference compound]
AC50 ([1]; Homo sapiens, HepG2, 24 h, read-out: AhR Translocation: AC50): > 100 µM | AhR Translocation: MEC ([1]; human, 24 h): 0.389 µM

[Cd+2].[Cl-].[Cl-] [Cadmium (II) chloride, reference compound]
Metal stress: MTF1: MEC ([1]; HepG2, 24 h): 0.0751 µM | Metal stress: metallothionein: MEC ([1]; HepG2, 24 h): 0.0751 µM | Metal stress: MTF1: Effect [1, 3]: increase | Metal stress: metallothionein: Effect [1, 3]: increase | AC50 ([1]; HepG2, 24 h, read-out: Metal stress: MTF1: AC50): 7.05 µM | AC50 ([1]; HepG2, 24 h, read-out: Metal stress: metallothionein: AC50): 7.05 µM

CC(=O)N(O)CCCCCNC(=O)CCC(=O)N(O)CCCCCNC(=O)CCC(=O)N(O)CCCCCN.CS(=O)(=O)O [Deferoxamine mesylate salt, reference compound]
Inflammation & pH: HIF1α: Effect [1]: increase | Inflammation & pH: HIF1α: MEC [1]: 6.2 µM | Inflammation & pH: ICAM-1: Effect [1]: increase | Inflammation & pH: ICAM-1: MEC [1]: 17.4 µM | Inflammation & pH: intracellular pH: Effect [1]: increase | Inflammation & pH: intracellular pH: MEC [1]: 6.46 µM | AC50 ([1]; HepG2, 24 h, read-out: Inflammation & pH: HIF1α: AC50): 4.31 µM | AC50 ([1]; HepG2, 24 h, read-out: Inflammation & pH: ICAM-1: AC50): > 200 µM | AC50 ([1]; HepG2, 24 h, read-out: Inflammation & pH: intracellular pH: AC50): > 200 µM

C=C(CC)C(=O)c1ccc(OCC(=O)O)c(Cl)c1Cl [Ethacrynic acid, reference compound]
AC50 ([1]; Homo sapiens, HepG2, 24 h, read-out: Oxidative stress: HMOX1: AC50): 19.2 µM | AC50 ([1]; Homo sapiens, HepG2, 24 h, read-out: Oxidative stress: NRF2: AC50): 28 µM | AC50 ([1]; Homo sapiens, HepG2, 24 h, read-out: Oxidative stress: SRXN1: AC50): 19 µM | Oxidative stress: HMOX1: MEC ([1]; human, 24 h): 0.824 µM | Oxidative stress: NRF2: MEC ([1]; human, 24 h): 3.52 µM | Oxidative stress: SRXN1: MEC ([1]; human, 24 h): 6.17 µM

C[C@H](CCC(=O)O)C[C@H](C)C[C@H](C)C(=O)/C=C(\O)[C@H](C)C[C@H](C)C/C=C/[C@@H](C)[C@@H](O)[C@@H](C)[C@@H](O)C[C@@H]1CC[C@@](C)([C@H]2CC[C@@](C)([C@@H](C)O)O2)O1 [Ionomycin, reference compound]
Apoptosis & necrosis: caspase 3/7: MEC ([1]; HepG2, 24 h): 0.0225 µM | Apoptosis & necrosis: cell cycle arrest: MEC ([1]; HepG2, 24 h): 0.0283 µM | Inflammation & pH: IL-8: MEC ([1]; HepG2, 24 h): 0.496 µM | Apoptosis & necrosis: caspase 3/7: Effect [1, 3]: increase | Apoptosis & necrosis: cell cycle arrest: Effect [1, 3]: decrease | Inflammation & pH: IL-8: Effect [1, 3]: increase | AC50 ([1]; Homo sapiens, HepG2, 24 h, read-out: Apoptosis & necrosis: caspase 3/7: AC50): 0.798 µM | AC50 ([1]; Homo sapiens, HepG2, 24 h, read-out: Apoptosis & necrosis: cell cycle arrest: AC50): 0.056 µM | AC50 ([1]; Homo sapiens, HepG2, 24 h, read-out: Apoptosis & necrosis: cell membrane permeability: AC50): 30.8 µM | AC50 ([1]; Homo sapiens, HepG2, 24 h, read-out: Inflammation & pH: IL-8: AC50): > 10 µM

CCCCS(=N)(=O)CCC(N)C(=O)O [L-BSO, reference compound]
GSH content: Effect [1]: decrease | GSH content: MEC [1]: 0.725 µM | AC50 ([1]; HepG2, 24 h, read-out: GSH content: AC50): 37.5 µM

Cc1oncc1C(=O)Nc1ccc(C(F)(F)F)cc1 [Leflunamide, reference compound]
Nuclear size: Effect [1]: increase | Nuclear size: MEC [1]: 1.18 µM | AC50 ([1]; HepG2, 24 h, read-out: Nuclear size: AC50): 9.87 µM

CN(CCOc1ccc(CC2SC(=O)NC2=O)cc1)c1ccccn1 (stereo not shown) [Rosiglitazone, reference compound]
AC50 ([1]; Homo sapiens, HepG2, 24 h, read-out: Mitochondrial oxidative stress: PGC1α: AC50): > 125 µM | Mitochondrial oxidative stress: PGC1α: MEC ([1]; human, 24 h): 67.8 µM

C=C(C)[C@H]1Cc2c(ccc3c2O[C@@H]2COc4cc(OC)c(OC)cc4[C@@H]2C3=O)O1 [Rotenone, reference compound]
Cellular ATP: MEC ([1]; HepG2, 24 h): < 0.04 µM | LDH release: MEC ([1]; HepG2, 24 h): 0.138 µM | Mitochondrial membrane potential: MEC ([1]; HepG2, 24 h): 0.00254 µM | Oxidative stress (ROS): MEC ([1]; HepG2, 24 h): 0.681 µM | Seahorse assay: Extracellular acidification rate (ECAR): MEC ([1]; HepG2, 24 h): 0.00546 µM | Seahorse assay: oxygen consumption rate (OCR): MEC ([1]; HepG2, 24 h): 0.000832 µM | Seahorse assay: reserve capacity: MEC ([1]; HepG2, 24 h): 0.000657 µM | AC50 ([1]; Homo sapiens, HepG2, 24 h, read-out: Cellular ATP: AC50): 3.05 µM | AC50 ([1]; Homo sapiens, HepG2, 24 h, read-out: LDH release: AC50): 57.6 µM | AC50 ([1]; Homo sapiens, HepG2, 24 h, read-out: Mitochondrial membrane potential: AC50): 0.094 µM | AC50 ([1]; Homo sapiens, HepG2, 24 h, read-out: Oxidative stress (ROS): AC50): > 100 µM | AC50 ([1]; Homo sapiens, HepG2, 24 h, read-out: Seahorse assay: Extracellular acidification rate (ECAR): AC50): 0.00549 µM | AC50 ([1]; Homo sapiens, HepG2, 24 h, read-out: Seahorse assay: oxygen consumption rate (OCR): AC50): 0.00432 µM | AC50 ([1]; Homo sapiens, HepG2, 24 h, read-out: Seahorse assay: reserve capacity: AC50): 0.00248 µM

CN[C@H]1CC[C@@H](c2ccc(Cl)c(Cl)c2)c2ccccc21 [Sertraline, reference compound]
ER stress panel 2: PERK: Effect [1]: increase | Phospholipidosis: Effect [1]: increase | Steatosis: Effect [1]: increase | AC50 ([1]; Homo sapiens, HepG2, 24 h, read-out: ER stress panel 2: PERK: AC50): > 6.25 µM | ER stress panel 2: PERK: MEC ([1]; human, 24 h): 2.17 µM | Phospholipidosis: Fold increase ([1]; human, 24 h): 4.16 | Phospholipidosis: MEC ([1]; human, 24 h): 0.0965 µM | Steatosis: Fold increase ([1]; human, 24 h): 2.02 | Steatosis: MEC ([1]; human, 24 h): 8.36 µM

[Cl-].[Na+] [Sodium chloride, reference compound]
Osmotic & heat shock: NFAT: MEC ([1]; HepG2, 24 h): 1430 µM | Osmotic & heat shock: NFAT: Effect [1, 3]: increase | AC50 ([1]; HepG2, 24 h, read-out: Osmotic & heat shock: NFAT: AC50): > 80000 µM

OC[C@@H](O)[C@@H](O)[C@H](O)[C@@H](O)CO [Sorbitol, reference compound]
Osmotic & heat shock: hsp70: Effect [1]: increase | AC50 ([1]; Homo sapiens, HepG2, 24 h, read-out: Osmotic & heat shock: hsp70: AC50): 91700 µM | Osmotic & heat shock: hsp70: MEC ([1]; human, 24 h): 29000 µM

CC(C)(c1cc(Br)c(O)c(Br)c1)c1cc(Br)c(O)c(Br)c1 [Tetrabromobisphenol A, reference compound]
TTR binding (thyroid) LOEC, reference compound [2]: −7.9 Log M

Tunicamycin [reference compound]
ER stress panel 1: BiP: MEC ([1]; HepG2, 24 h): < 0.391 µM | ER stress panel 1: ER integrity: MEC ([1]; HepG2, 24 h): 0.453 µM | ER stress panel 1: XBP1: MEC ([1]; HepG2, 24 h): 0.532 µM | ER stress panel 2: ATF4: MEC ([1]; HepG2, 24 h): < 0.391 µM | ER stress panel 2: CHOP: MEC ([1]; HepG2, 24 h): 0.955 µM | ER stress panel 1: BiP: Effect [1, 3]: increase | ER stress panel 1: ER integrity: Effect [1, 3]: increase | ER stress panel 1: XBP1: Effect [1, 3]: increase | ER stress panel 2: ATF4: Effect [1, 3]: increase | ER stress panel 2: CHOP: Effect [1, 3]: increase | AC50 ([1]; HepG2, 24 h, read-out: ER stress panel 1: BiP: AC50): > 1.56 µM | AC50 ([1]; HepG2, 24 h, read-out: ER stress panel 1: ER integrity: AC50): 2.22 µM | AC50 ([1]; HepG2, 24 h, read-out: ER stress panel 1: XBP1: AC50): > 3.13 µM | AC50 ([1]; HepG2, 24 h, read-out: ER stress panel 2: ATF4: AC50): 27.9 µM | AC50 ([1]; HepG2, 24 h, read-out: ER stress panel 2: CHOP: AC50): > 6.25 µM
